In article PMC8536644, “Enigmatic mechanism of the N-vinylpyrrolidone hepatocarcinogenicity in the rat” (Archives of Toxicology, 2021):
“And” between values parts separate entries of the source, which are not always exact repeats. Equal entries are not always repeated. Where two headings read alike, the source gives them in different places.

Columns and labels:
[1] = Trypan Blue viability of the single cell suspension, liver; type: in vivo, rat; details: Wistar, rat, liver, inhaled, liver, 5 days
[2] = test system: rat liver cells; test: Comet assay, conventional (no FPG), liver; details: for Hedgehogs/100 cells (mean ± SD) / TI (%) (mean ± SD) / TI (%), mean of medians from 2 slides: liver, no FPG, 5 days; for TI (%), mean of medians from 2 slides: individual animals
Description: Animals were anesthetized by 3.5% isoflurane (approximately 3 min, evaporator Dräger Vapor 19.3) and then killed by cervical dislocation. The liver was removed and its left lateral lobe used for the Comet assay. The remainder of the liver was washed in saline and then in two aliquots shock frozen in liquid nitrogen and stored at − 80 °C for later examinations. Subsequently the lung was removed from the dead animal. Its left lobe was used for the Comet assay and the remainder treated as described above for the liver. Thereafter the femora were removed for the preparation of the bone marrow.
The Comet assay was performed under alkaline conditions according to the principles described by Singh et al. ([1988]) and Tice et al. ([2000]).
Liver and lung cells were obtained essentially as described by Hartmann et al. ([2004]) and by the Japanese Center for the Validation of Alternative Methods (JaCVAM [2009]). Single cells were obtained within 1 h after killing of the animals in order to minimize DNA damage during the preparation.
The organ parts (see above) were washed in mincing buffer (50 mM EDTA in HBSS [without Ca^2+ and Mg^2+] pH 7.5: DMSO 9:1 (v/v), the latter added shortly before use, stored at 4 °C), cut into 1 to 2-mm pieces in ice-cold mincing buffer and transferred to a cell sieve with 70-µm pores. The viability of the cell suspension was evaluated by the Trypan Blue Assay (Strober [2001]).
100 µL of the obtained cell suspension was mixed at 37 °C with 900 µL Low Melting Agarose (LMA) (0.7% agarose in phosphate-buffered saline [PBS] [Biochrom, Berlin, Germany] without Ca^2+ and Mg^2+). 100 µL of this mixture was transferred to a slide, which had been coated with Normal Melting Agarose (NMA) (0.6% agarose in PBS without Ca^2+ and Mg^2+). The slides were protected with a cover slip and the agarose was hardened at approximately 4 °C. The cover slips were then removed and the slides put over night at 4 °C into lysis buffer (2.5 M NaCl, 125 mM NaOH, 127 mM EDTA, 10 mM Tris/NaOH, pH 10; 1% Triton X-100 and 10% DMSO (v/v), the latter two added before use) in order to lyse the cell membrane, nuclear membrane and remove the histone.
The then following procedures were performed in a shaded room to minimize UV-mediated DNA damage during the procedures.
Remaining lysis buffer or FPG buffer was removed by immersing/washing the slides in PBS (without Ca^2+ and Mg^2+).
The slides were then placed into the electrophoresis chamber, which was cooled and protected from light. Slides were covered with electrophoresis buffer (0.3 M NaOH, 1 mM EDTA, pH > 13) carefully avoiding air bubbles. The DNA was allowed to unwind (20 min). Thereafter the electrophoresis was started (25 V, 300 mA, […], 30 min). The slides were then washed (2 times 5 min) in neutralization buffer (0.4 M Tris/HCl, pH 7.5), dehydrated and fixed in 100% ethanol (1 min), dried at room temperature overnight and stored at room temperature protected from dust.
Quantitative evaluation of the Comet assays was performed by fluorescence microscopy after DNA staining with ethidium bromide.

C=CN1CCCC1=O [NVP, N-vinylpyrrolidone]
viability at 5 days ([1]; female, 10 ppm, female, Comet with FPG (Table 9), 10 ppm inhalation, individual animals, read-out: Individual viability (%)): 98% | viability at 5 days ([1]; female, 10 ppm, female, Comet with FPG (Table 9), 10 ppm inhalation, read-out: Viability (%) (mean ± SD)): 98 ± 1% | viability at 5 days ([1]; female, 10 ppm, female, no FPG, 10 ppm inhalation, individual animals, read-out: Individual viability (%)): 96% | viability at 5 days ([1]; female, 10 ppm, female, no FPG, 10 ppm inhalation, read-out: Viability (%) (mean ± SD)): 96 ± 1% | viability at 5 days ([1]; female, 20 ppm, female, Comet with FPG (Table 9), 20 ppm inhalation, individual animals, read-out: Individual viability (%)): 98% | viability at 5 days ([1]; female, 20 ppm, female, Comet with FPG (Table 9), 20 ppm inhalation, read-out: Viability (%) (mean ± SD)): 98 ± 1% | viability at 5 days ([1]; female, 20 ppm, female, no FPG, 20 ppm inhalation, individual animals, read-out: Individual viability (%)): 96% | viability at 5 days ([1]; female, 20 ppm, female, no FPG, 20 ppm inhalation, read-out: Viability (%) (mean ± SD)): 97 ± 1% | viability at 5 days ([1]; male, 5 ppm, male, Comet with FPG (Table 8), 5 ppm inhalation, individual animals, read-out: Individual viability (%)): 97% | viability at 5 days ([1]; male, 5 ppm, male, Comet with FPG (Table 8), 5 ppm inhalation, read-out: Viability (%) (mean ± SD)): 98 ± 1% | viability at 5 days ([1]; male, 5 ppm, male, no FPG, 5 ppm inhalation, individual animals, read-out: Individual viability (%)): 92% | viability at 5 days ([1]; male, 5 ppm, male, no FPG, 5 ppm inhalation, read-out: Viability (%) (mean ± SD)): 95 ± 3% | viability at 5 days ([1]; male, 10 ppm, male, Comet with FPG (Table 8), 10 ppm inhalation, individual animals, read-out: Individual viability (%)): 99% | viability at 5 days ([1]; male, 10 ppm, male, Comet with FPG (Table 8), 10 ppm inhalation, read-out: Viability (%) (mean ± SD)): 98 ± 2% | viability at 5 days ([1]; male, 10 ppm, male, no FPG, 10 ppm inhalation, individual animals, read-out: Individual viability (%)): 96% | viability at 5 days ([1]; male, 10 ppm, male, no FPG, 10 ppm inhalation, read-out: Viability (%) (mean ± SD)): 96 ± 1% | viability at 5 days ([1]; male, 20 ppm, male, Comet with FPG (Table 8), 20 ppm inhalation, individual animals, read-out: Individual viability (%)): 100% | viability at 5 days ([1]; male, 20 ppm, male, Comet with FPG (Table 8), 20 ppm inhalation, read-out: Viability (%) (mean ± SD)): 99 ± 1% | viability at 5 days ([1]; male, 20 ppm, male, no FPG, 20 ppm inhalation, individual animals, read-out: Individual viability (%)): 98% | viability at 5 days ([1]; male, 20 ppm, male, no FPG, 20 ppm inhalation, read-out: Viability (%) (mean ± SD)): 97 ± 1% | Hedgehogs ([2]; NVP-treated liver cells, with or without FPG): 1–5% | Hedgehogs/100 cells (mean ± SD) ([2]; female, 5 ppm inhalation): 3 ± 3 /100 cells | TI (%) (mean ± SD) ([2]; female, 5 ppm inhalation): 1.0 ± 0.40% | TI (%), mean of medians from 2 slides ([2]; female, 5 ppm inhalation): 0.9% and 1.1% and 1.7% and 0.8% and 0.6% | Hedgehogs/100 cells (mean ± SD) ([2]; female, 10 ppm inhalation): 4 ± 4 /100 cells | TI (%) (mean ± SD) ([2]; female, 10 ppm inhalation): 0.9 ± 0.48% | TI (%), mean of medians from 2 slides ([2]; female, 10 ppm inhalation): 1.3% and 0.6% and 0.5% and 1.4% and 0.3% | Hedgehogs/100 cells (mean ± SD) ([2]; female, 20 ppm inhalation): 3 ± 2 /100 cells | TI (%) (mean ± SD) ([2]; female, 20 ppm inhalation): 0.7 ± 0.34% | Hedgehogs/100 cells (mean ± SD) ([2]; male, 5 ppm inhalation): 3 ± 2 /100 cells | TI (%) (mean ± SD) ([2]; male, 5 ppm inhalation): 0.9 ± 0.22% | TI (%), mean of medians from 2 slides ([2]; male, 5 ppm inhalation): 1.2% and 0.9% and 0.6% and 0.7% and 1.1% | Hedgehogs/100 cells (mean ± SD) ([2]; male, 10 ppm inhalation): 3 ± 1 /100 cells | TI (%) (mean ± SD) ([2]; male, 10 ppm inhalation): 1.0 ± 0.68% | TI (%), mean of medians from 2 slides ([2]; male, 10 ppm inhalation): 0.7% and 2.4% and 1.0% and 0.6% | Hedgehogs/100 cells (mean ± SD) ([2]; male, 20 ppm inhalation): 3 ± 1 /100 cells | TI (%) (mean ± SD) ([2]; male, 20 ppm inhalation): 0.7 ± 0.34% | TI (%), mean of medians from 2 slides ([2]; male, 20 ppm inhalation): 1.2% and 0.8% and 0.5% and 1.0% and 0.3%
